Columns and labels:
[1] = molecular target: Recombinant human Bcl-2 protein (Homo sapiens (Human), UniProt P10415); assay: Bcl-2 TR-FRET Assay; format: binding; conditions: Bcl-2 wild type, TR-FRET; read-out: Biochemical assay (IC50, nM) Bcl-2 WT
Summary of the method: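 0.05 nM recombinant Bcl-2 preincubated 0.5 h at room temperature with 10-point compound dilutions (top final 1, 0.1, 0.02 or 0.01 uM) in pH 7.5 phosphate buffer. FITC-Bak peptide (0.5 nM) and anti-6His Tb cryptate then added for 1 h. TR-FRET read; IC50 from four-parameter logistic fit.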

[2] = molecular target: recombinant human Bcl-2-G101V protein (Homo sapiens (Human), UniProt P10415, G101V); assay: Bcl-2-G101V TR-FRET Assay; format: binding; conditions: Bcl-2 G101V mutant, TR-FRET; read-out: Biochemical assay (IC50, nM) Bcl-2 G101V
Summary of the method: (§1)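 TR-FRET read at excitation 337 nm with emission at 490 nm and 520 nm. Inhibition of Bcl-2-G101V binding to its ligand across increasing compound concentrations was calculated from the 490/520 nm fluorescence ratio, and IC50 values came from four-parameter logistic fits.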

[3] = system: recombinant human Bcl-2-G101V protein; assay: Bcl-2-G101V TR-FRET Assay; format: binding; conditions: ratio of biochemical IC50 Bcl-2 G101V / Bcl-2 WT
Summary of the method: as §1

[4] = system: BCL-2 G101V knock-in cell line H96 (derive from RS4;11); assay: Bcl 2-G101V Knock-In RS4;11 Cell Proliferation Assay; format: cell-based; conditions: Homo sapiens, RS4;11 Bcl-2 G101V knock-in clone H96, 48 hrs, CellTiter-GLO, read-out: Cellular proliferation assay (IC50, nM) RS4
Summary of the method: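 H96, a CRISPR-generated RS4;11 clone carrying BCL2-G101V knock-in (WES/RNA-seq validated), seeded 50,000 per well and exposed 48 h at 37 °C to 10-point dilutions topping at 1 or 10 μM. Viability by CellTiter-Glo luminescence; mean IC50.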

[5] = system: RS4;11 (BCL-2 dependent acute lymphoblastic leukemia cell line); assay: RS4;11 Cell Proliferation Assay; format: cell-based; conditions: Homo sapiens, RS4-11, RS4;11 cells, read-out: Cellular proliferation assay (IC50, nM) RS4
Summary of the method: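 RS4;11 cells, 50,000 per well in RPMI-1640 with 10% FBS, treated 48 h at 37 °C with a 10-point dilution series topping at 1 μM. Viability read by CellTiter-Glo ATP luminescence; mean IC50 reported.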

SMILES | IC50 [1] [nM] | IC50 [2] [nM] | Ratio of Bcl-2 G101V/WT [3] | IC50 [4] [nM] | IC50 [5] [nM]
COc1ccc(CN2CCN(C3CC4(CCN(c5ccc(C(=O)NS(=O)(=O)c6ccc(NC[C@H]7CC[C@](C)(O)CC7)c([N+](=O)[O-])c6)c(Oc6cnc7[nH]ccc7c6)c5)CC4)C3)C(c3ccccc3C)C2)cc1 (stereo partly drawn) [Example 34, 2-((1H-pyrrolo[2,3-b]pyridin-5-yl)oxy)-N-((4-((((1r,4r)-4-hydroxy-4-methylcyclohexyl)methyl)amino)-3-nitrophenyl)sulfonyl)-4-(2-(4-(4-methoxybenzyl)-2-(o-tolyl)piperazin-1-yl)-7-azaspiro[3.5]nonan-7-yl)benzamide] | 0.049 | 1.8 | 36.7 | 13.9 | 1.3
CC(C)c1ccccc1C1CN(Cc2cccc3c2OC(C)(C)O3)CCN1C1CC2(CCN(c3ccc(C(=O)NS(=O)(=O)c4ccc(NC[C@H]5CC[C@](C)(O)CC5)c([N+](=O)[O-])c4)c(Oc4cnc5[nH]ccc5c4)c3)CC2)C1 (stereo partly drawn) [Example 201, 2-((1H-pyrrolo[2,3-b]pyridin-5-yl)oxy)-4-(2-(4-((2,2-dimethylbenzo [d][1,3]dioxol-4-yl)methyl)-2-(2-isopropylphenyl)piperazin-1-yl)-7-azaspiro[3.5]nonan-7-yl)-N-((4-((((1r,4r)-4-hydroxy-4-methylcyclohexyl)methyl)amino)-3-nitrophenyl)sulfonyl)benzamide] | 0.28 | 1.1 | 3.9 | 6.2 | 0.74
COc1cc(CN2CCN(C3CC4(C3)CN(c3ccc(C(=O)NS(=O)(=O)c5ccc(NC[C@H]6CC[C@](C)(O)CC6)c([N+](=O)[O-])c5)c(Oc5cnc6[nH]cc(F)c6c5)c3)C4)[C@H](c3ccccc3C(C)C)C2)ccc1C1CCC1 [Example 341, 4-(6-((R)-4-(4-cyclobutyl-3-methoxybenzyl)-2-(2-isopropylphenyl)piperazin-1-yl)-2-azaspiro[3.3]heptan-2-yl)-2-((3-fluoro-1H-pyrrolo[2,3-b]pyridin-5-yl)oxy)-N-((4-((((1r,4r)-4-hydroxy-4-methylcyclohexyl)methyl)amino)-3-nitrophenyl)sulfonyl)benzamide] | 1.6 | 4.5 | 2.8 | 0.68 | 0.12
COc1ccc(CN2CCN(C3CC4(CCN(c5ccc(C(=O)NS(=O)(=O)c6ccc(NC[C@H]7CC[C@](C)(O)CC7)c([N+](=O)[O-])c6)c(Oc6cnc7[nH]ccc7c6)c5)CC4)C3)C(c3ccccc3C(C)C)C2)cc1OC1CC1 (stereo partly drawn) [Example 186, 2-((1H-pyrrolo[2,3-b]pyridin-5-yl)oxy)-4-(2-(4-(3-cyclopropoxy-4-methoxybenzyl)-2-(2-isopropylphenyl)piperazin-1-yl)-7-azaspiro[3.5]nonan-7-yl)-N-((4-((((1r,4r)-4-hydroxy-4-methylcyclohexyl)methyl)amino)-3-nitrophenyl)sulfonyl)benzamide] | 0.15 | 0.64 | 4.2 | 2.5 | 0.53
COc1ccc(CN2CCN(C3CC4(CCN(c5ccc(C(=O)NS(=O)(=O)c6ccc(NC[C@H]7CC[C@](C)(O)CC7)c([N+](=O)[O-])c6)c(Oc6cnc7[nH]ccc7c6)c5)CC4)C3)[C@@H](c3ccccc3C(C)C)C2)cc1OC [Example 81b] | 0.074 | 2 | 27 | 11.6 | 2.85
CC(C)c1ccccc1C1CN(Cc2cccc3occc23)CCN1C1CC2(CCN(c3ccc(C(=O)NS(=O)(=O)c4ccc(NC[C@H]5CC[C@](C)(O)CC5)c([N+](=O)[O-])c4)c(Oc4cnc5[nH]ccc5c4)c3)CC2)C1 (stereo partly drawn) [Example 213, 2-((1H-pyrrolo[2,3-b]pyridin-5-yl)oxy)-4-(2-(4-(benzofuran-4-ylmethyl)-2-(2-isopropylphenyl)piperazin-1-yl)-7-azaspiro[3.5]nonan-7-yl)-N-((4-((((1r,4r)-4-hydroxy-4-methylcyclohexyl)methyl)amino)-3-nitrophenyl)sulfonyl)benzamide] | 0.7 | 2.6 | 3.7 | 5.2 | 0.32
CC(C)c1ccccc1C1CN(S(C)(=O)=O)CCN1C1CC2(CCN(c3ccc(C(=O)NS(=O)(=O)c4ccc(NC[C@H]5CC[C@](C)(O)CC5)c([N+](=O)[O-])c4)c(Oc4cnc5[nH]ccc5c4)c3)CC2)C1 (stereo partly drawn) [Example 66, 2-((1H-pyrrolo[2,3-b]pyridin-5-yl)oxy)-N-((4-((((1r,4r)-4-hydroxy-4-methylcyclohexyl)methyl)amino)-3-nitrophenyl)sulfonyl)-4-(2-(2-(2-isopropylphenyl)-4-(methylsulfonyl)piperazin-1-yl)-7-azaspiro[3.5]nonan-7-yl) benzamide] | 0.034 | 1.6 | 47.1 | 6.61 | 0.6
CC(C)c1ccccc1[C@@H]1CN(Cc2ccc3c(c2)OCC3(C)C)CCN1C1CC2(CCN(c3ccc(C(=O)NS(=O)(=O)c4ccc(NC[C@H]5CC[C@](C)(O)CC5)c([N+](=O)[O-])c4)c(Oc4cnc5[nH]cc(F)c5c4)c3)CC2)C1 [Example 308, 4-(2-((R)-4-((3,3-dimethyl-2,3-dihydrobenzofuran-6-yl)methyl)-2-(2-isopropylphenyl)piperazin-1-yl)-7-azaspiro[3.5]nonan-7-yl)-2-((3-fluoro-1H-pyrrolo[2,3-b]pyridin-5-yl)oxy)-N-((4-((((1r,4r)-4-hydroxy-4-methylcyclohexyl)methyl)amino)-3-nitrophenyl)sulfonyl)benzamide] | 0.67 | 3.11 | 4.6 | 3.95 | 0.58
COc1cc(CN2CCN(C3CC4(C3)CN(c3ccc(C(=O)NS(=O)(=O)c5ccc(NC[C@H]6CC[C@](C)(O)CC6)c([N+](=O)[O-])c5)c(Oc5cnc6[nH]cc(F)c6c5)c3)C4)[C@H](c3ccccc3C(C)C)C2)cc2c1OCCCO2 [Example 335, 2-((3-fluoro-1H-pyrrolo[2,3-b]pyridin-5-yl)oxy)-N-((4-((((1r,4r)-4-hydroxy-4-methylcyclohexyl)methyl)amino)-3-nitrophenyl)sulfonyl)-4-(6-((R)-2-(2-isopropylphenyl)-4-((9-methoxy-3,4-dihydro-2H-benzo[b][1,4]dioxepin-7-yl)methyl)piperazin-1-yl)-2-azaspiro[3.3]heptan-2-yl) benzamide] | 0.06 | 0.15 | 2.6 | 0.34 | 0.17
CC(C)c1ccccc1[C@@H]1CN(Cc2ccnc3c2OC(C)(C)CO3)CCN1C1CC2(C1)CN(c1ccc(C(=O)NS(=O)(=O)c3ccc(NC[C@H]4CC[C@](C)(O)CC4)c([N+](=O)[O-])c3)c(Oc3cnc4[nH]ccc4c3)c1)C2 [Example 314, 2-((1H-pyrrolo[2,3-b]pyridin-5-yl)oxy)-4-(6-((R)-4-((2,2-dimethyl-2,3-dihydro-[1,4]dioxino[2,3-b]pyridin-8-yl)methyl)-2-(2-isopropylphenyl)piperazin-1-yl)-2-azaspiro[3.3]heptan-2-yl)-N-((4-((((1r,4r)-4-hydroxy-4-methylcyclohexyl)methyl)amino)-3-nitrophenyl)sulfonyl)benzamide] | 0.032 | 0.13 | 4.2 | 0.61 | 0.17
CC(C)c1ccccc1C1CN(S(=O)(=O)c2ccccc2)CCN1C1CC2(CCN(c3ccc(C(=O)NS(=O)(=O)c4ccc(NC[C@H]5CC[C@](C)(O)CC5)c([N+](=O)[O-])c4)c(Oc4cnc5[nH]ccc5c4)c3)CC2)C1 (stereo partly drawn) [Example 62, 2-((1H-pyrrolo[2,3-b]pyridin-5-yl)oxy)-N-((4-((((1r,4r)-4-hydroxy-4-methylcyclohexyl)methyl)amino)-3-nitrophenyl)sulfonyl)-4-(2-(2-(2-isopropylphenyl)-1-(phenylsulfonyl)piperazin-1-yl)-7-azaspiro[3.5]nonan-7-yl) benzamide] | 0.33 | 13 | 39.4 | 28.4 | 2.4
CC(C)c1ccccc1[C@H]1CN(C(C)C)CCN1C1CC2(CCN(c3ccc(C(=O)NS(=O)(=O)c4ccc(NC[C@H]5CC[C@](C)(O)CC5)c([N+](=O)[O-])c4)c(Oc4cnc5[nH]ccc5c4)c3)CC2)C1 (single isomer, unassigned) [Example 3a, 2-((1H-pyrrolo[2,3-b]pyridin-5-yl)oxy)-N-((4-((((1r,4r)-4-hydroxy-4-methylcyclohexyl)methyl)amino)-3-nitrophenyl)sulfonyl)-4-(2-((S or R)-4-isopropyl-2-(2-isopropylphenyl)piperazin-1-yl)-7-azaspiro[3.5]nonan-7-yl)benzamide] | 0.034 | 2.2 | 64.7 | 35.1 | 3.67
